Assay results published in PMC11915372, “Identification of a Series Containing a Pentafluorophenyl Moiety That Targets Pks13 to Inhibit Growth of Mycobacterium tuberculosis” (ACS Infectious Diseases, 2025).
Converted amounts (≈) assume the structure as drawn. Like-named read-outs stand apart in the source and are kept apart here.

What was measured:
[1] = system: HepG2 cells; assay: HepG2 cytotoxicity; details: Homo sapiens
Description: Assays to establish HepG2 cytotoxicity, in vitro microsomal/hepatocyte metabolic stability, aqueous kinetic solubility, and in vivo pharmacokinetic profiles were all performed as previously described.[15],[35]−[37]

[2] = system: M. tuberculosis (H37Rv); assay: microbe, parasite or virus in culture; format: cell-based, Mycobacterium tuberculosis; details: for MIC: Mycobacterium tuberculosis, H37RV
[3] = format: in vitro ADME, mouse
[4] = format: in vitro ADME, mouse; remark: listed apart in the source
[5] = physchem; format: physicochemical
[6] = physchem; details: pH 7.4
[7] = HepG2, read-out: HepG2 inhibitory concentration (IC50)
[8] = read-out: Wk2_7H9/DPPC/ casitone/ Tyloxapol MIC
[9] = read-out: Wk2_ 7H9/DPPC/ cholesterol/BSA/ Tyloxapol MIC
[10] = read-out: Wk2_7H9/glucose/ BSA/Tyloxapol MIC
[11] = read-out: Wk2_7H9/glucose/ casitone/ Tyloxapol MIC
[12] = pH 7.4, aqueous buffer, kinetic from dmso stock
[13] = pH 7.4, aqueous buffer, kinetic from dmso stock, pH7.4, read-out: Kinetic Solubility pH7.4
[14] = intrinsic clearance (Cli), CD1 mouse liver microsomes, Tables 1-4
[15] = kinetic solubility in water, read-out: Kin. Sol

Row | Structure (SMILES) | IC50 [1, 7] [µM] | MIC ([2]; read-out: H37Rv MIC A) [µM] | MIC ([2]; read-out: H37Rv MIC B) [µM] | MIC [2, 8] [µM] | MIC [2, 9] [µM] | MIC [2, 10] [µM] | MIC [2, 11] [µM] | Microsomal Cli ([3]; CD1, mouse) [mL/min/g] | Mouse micro Cl ([3]; mouse, microsomes) [mLmin/g] | Hepatocyte Cli ([4]; mouse) [mL/min/g] | Mouse Heps Cl ([4]; mouse, hepatocytes) [mLmin/g] | solubility kinetic [5, 12] [µM] | solubility kinetic ([5]; read-out: Kin. Sol) [µM] | also measured
1 | CN(C)c1ncnc2sc(-c3c(F)c(F)cc(F)c3F)nc12 [Compound 2, CN(C)c1ncnc2sc(nc12)-c1c(c(cc(c1F)F)F)F] | > 100 | > 50 | > 50 | > 50 | > 50 | > 50 | 4.7 (≈ 1.54 µg/mL) | >50 | >50 |  |  |  |  | 
2 | CN(C)c1ncnc2sc(-c3ccccc3)nc12 [Compound 3, CN(C)c1ncnc2sc(nc12)-c1ccccc1] | > 100 | > 50 | > 50 | > 50 | > 50 | > 50 | > 50 | >50 | >50 |  |  |  |  | 
3 | CN(C)c1ncnc2sc(-c3cc(F)c(F)c(F)c3)nc12 [Compound 4, CN(C)c1ncnc2sc(nc12)-c1cc(c(c(c1)F)F)F] | > 100 | > 50 | > 50 | > 50 | > 50 | > 50 | > 50 | >50 | >50 |  |  |  |  | 
4 | CN(C)c1ncnc2sc(-c3ccc(F)cc3)nc12 [Compound 5, CN(C)c1ncnc2sc(nc12)-c1ccc(cc1)F] | > 100 | > 50 | > 50 | > 50 | > 50 | > 50 | 19 (≈ 5.21 µg/mL) | >50 | >50 |  |  |  |  | 
5 | CN(C)c1ncnc2oc(-c3c(F)c(F)c(F)c(F)c3F)nc12 [Compound 6, CN(C)c1ncnc2oc(nc12)-c1c(c(c(c(c1F)F)F)F)F] | > 100 | 0.2 (≈ 0.066 µg/mL) | 1.4 (≈ 0.462 µg/mL) | 0.2 (≈ 0.066 µg/mL) | 1.4 (≈ 0.462 µg/mL) | 1.4 (≈ 0.462 µg/mL) | 0.15 (≈ 0.0495 µg/mL) | >50 | >50 | >50 | >50 | 1 (≈ 0.33 µg/mL) | 1.0 (≈ 0.33 µg/mL) | 
6 | CN(C)c1ncnc2c1nc(-c1c(F)c(F)c(F)c(F)c1F)n2C [Compound 7, CN(C)c1ncnc2n(c(nc12)-c1c(c(c(c(c1F)F)F)F)F)C] | > 100 | 1.9 (≈ 0.652 µg/mL) | > 50 | 1.9 (≈ 0.652 µg/mL) | > 50 | > 50 | 1.7 (≈ 0.584 µg/mL) | 8.4 | 8.4 |  |  | 26 (≈ 8.92 µg/mL) | 26 (≈ 8.92 µg/mL) | 
7 | CCN(CC)c1ncnc2sc(-c3c(F)c(F)c(F)c(F)c3F)nc12 [Compound 8, CCN(CC)c1ncnc2sc(nc12)-c1c(c(c(c(c1F)F)F)F)F] | > 100 | 0.3 (≈ 0.112 µg/mL) | 0.78 (≈ 0.292 µg/mL) | 0.3 (≈ 0.112 µg/mL) | 0.8 (≈ 0.299 µg/mL) | 0.8 (≈ 0.299 µg/mL) | 0.4 (≈ 0.15 µg/mL) | 26 | 26 |  |  | 0.142 (≈ 0.0532 µg/mL) |  | solubility kinetic ([5]; water, kinetic from dmso stock): 0.1 µM (≈ 0.0374 µg/mL)
8 | Fc1c(F)c(F)c(-c2nc3c(N4CCOCC4)ncnc3s2)c(F)c1F [Compound 9, Fc1c(c(c(c(c1F)F)-c1nc2c(ncnc2s1)N1CCOCC1)F)F] | > 100 |  | 0.6 (≈ 0.233 µg/mL) |  | 0.6 (≈ 0.233 µg/mL) | 0.6 (≈ 0.233 µg/mL) | 0.07 (≈ 0.0272 µg/mL) | 43 | 43 |  |  | 2.8 (≈ 1.09 µg/mL) | 2.8 (≈ 1.09 µg/mL) | 
9 | Fc1c(F)c(F)c(-c2nc3c(N4CCOCC4)ncnc3o2)c(F)c1F [Compound 10, Fc1c(c(c(c(c1F)F)-c1nc2c(ncnc2o1)N1CCOCC1)F)F] | 49 | 0.2 (≈ 0.0745 µg/mL) | 1.2 (≈ 0.447 µg/mL) | 0.2 (≈ 0.0745 µg/mL) | 1.2 (≈ 0.447 µg/mL) | 1.2 (≈ 0.447 µg/mL) | 0.15 (≈ 0.0558 µg/mL) |  |  |  |  |  |  | IC50 ([1]; HepG2, read-out: Hs-HEPG IC50): 48 µM; Mouse Heps Cl ([4]; intrinsic clearance (Cli), mouse hepatocytes, Tables 1-4): >50 mLmin/g; Hepatocyte Cli ([4]; supplement data table): >50 mL/min/g; solubility kinetic ([5]; kinetic from dmso stock, kinetic solubility in water, read-out: Kin. Sol): 13.6 µM (≈ 5.06 µg/mL); solubility kinetic [5, 13]: 14 µM (≈ 5.21 µg/mL); Mouse micro Cl [3, 14]: 44 mLmin/g; Microsomal Cli ([3]; supplement data table): 44 mL/min/g
10 | Fc1c(F)c(F)c(-c2nc3cncnc3s2)c(F)c1F [Compound 11, Fc1c(c(c(c(c1F)F)-c1nc2cncnc2s1)F)F] | 35 | 0.34 (≈ 0.103 µg/mL) | 6.3 (≈ 1.91 µg/mL) | 0.342 (≈ 0.104 µg/mL) | 6.3 (≈ 1.91 µg/mL) | 4.7 (≈ 1.43 µg/mL) | 0.279 (≈ 0.0846 µg/mL) | 18 | 18 |  |  | 103 (≈ 31.2 µg/mL) | 103 (≈ 31.2 µg/mL) | 
11 | CNc1ncnc2oc(-c3c(F)c(F)c(F)c(F)c3F)nc12 [Compound 12, CNc1ncnc2oc(nc12)-c1c(c(c(c(c1F)F)F)F)F] | > 100 | > 50 | > 50 | > 50 | > 50 | > 50 | > 50 | <0.5 | 0.5 | 4.7 | 4.7 | 227 (≈ 71.8 µg/mL) | 228 (≈ 72.1 µg/mL) | 
12 | CN(C)c1ccnc2oc(-c3c(F)c(F)c(F)c(F)c3F)nc12 [Compound 13, CN(C)c1ccnc2oc(nc12)-c1c(c(c(c(c1F)F)F)F)F] |  | 0.6 (≈ 0.198 µg/mL) | 3.1 (≈ 1.02 µg/mL) | 0.6 (≈ 0.198 µg/mL) | 3.1 (≈ 1.02 µg/mL) | 2.3 (≈ 0.757 µg/mL) | 0.6 (≈ 0.198 µg/mL) | >50 | >50 | >50 | >50 | 1.6 (≈ 0.527 µg/mL) | 1.6 (≈ 0.527 µg/mL) | 
13 | CN(C)c1nccc2oc(-c3c(F)c(F)c(F)c(F)c3F)nc12 [Compound 14, CN(C)c1nccc2oc(nc12)-c1c(c(c(c(c1F)F)F)F)F] | > 100 | 3.1 (≈ 1.02 µg/mL) | 9.4 (≈ 3.09 µg/mL) | 3.1 (≈ 1.02 µg/mL) | 9.4 (≈ 3.09 µg/mL) | 6.3 (≈ 2.07 µg/mL) | 3.1 (≈ 1.02 µg/mL) | >50 | >50 | >50 | >50 |  |  | 
14 | Oc1ncnc2oc(-c3c(F)c(F)c(F)c(F)c3F)nc12 [Compound 15, Oc1ncnc2oc(nc12)-c1c(c(c(c(c1F)F)F)F)F] | 88 | 1.4 (≈ 0.424 µg/mL) | 9.4 (≈ 2.85 µg/mL) | 1.4 (≈ 0.424 µg/mL) | 9.4 (≈ 2.85 µg/mL) | 5.4 (≈ 1.64 µg/mL) | 3.9 (≈ 1.18 µg/mL) | 2.8 | 2.81 | >50 | >50 | 149 (≈ 45.2 µg/mL) | 149 (≈ 45.2 µg/mL) | 
15 | COC(=O)c1cnccc1NC(=O)c1c(F)c(F)c(F)c(F)c1F [Compound 16, COC(=O)c1cnccc1NC(=O)c1c(c(c(c(c1F)F)F)F)F] | 64 | 0.1 (≈ 0.0346 µg/mL) | 0.6 (≈ 0.208 µg/mL) | 0.1 (≈ 0.0346 µg/mL) | 0.6 (≈ 0.208 µg/mL) | 0.3 (≈ 0.104 µg/mL) | 0.15 (≈ 0.0519 µg/mL) | 20 | 20 | >50 | >50 | 112 (≈ 38.8 µg/mL) | 112 (≈ 38.8 µg/mL) | chromatographic logD [6]: 3.2
16 | COC(=O)c1cccnc1NC(=O)c1c(F)c(F)c(F)c(F)c1F [Compound 17, COC(=O)c1cccnc1NC(=O)c1c(c(c(c(c1F)F)F)F)F] | > 100 | 9.4 (≈ 3.25 µg/mL) | > 50 | 9.4 (≈ 3.25 µg/mL) | > 50 | > 50 | 12.5 (≈ 4.33 µg/mL) | 47 | 47 |  |  |  |  | 
17 | COC(=O)c1ccncc1NC(=O)c1c(F)c(F)c(F)c(F)c1F [Compound 18, COC(=O)c1ccncc1NC(=O)c1c(c(c(c(c1F)F)F)F)F] | > 100 | 4.7 (≈ 1.63 µg/mL) | 12.5 (≈ 4.33 µg/mL) | 4.7 (≈ 1.63 µg/mL) | 12.5 (≈ 4.33 µg/mL) | 12.5 (≈ 4.33 µg/mL) | 4.7 (≈ 1.63 µg/mL) | 27 | 27 |  |  | 109 (≈ 37.7 µg/mL) | 109 (≈ 37.7 µg/mL) | chromatographic logD [6]: 2.8
18 | CCOC(=O)c1c(NC(=O)c2c(F)c(F)c(F)c(F)c2F)ncn1C [Compound 21, CCOC(=O)c1c(ncn1C)NC(=O)c1c(c(c(c(c1F)F)F)F)F] | > 100 | 2.3 (≈ 0.835 µg/mL) | 6.3 (≈ 2.29 µg/mL) | 2.3 (≈ 0.835 µg/mL) | 6.3 (≈ 2.29 µg/mL) | 4.7 (≈ 1.71 µg/mL) | 1.6 (≈ 0.581 µg/mL) |  |  |  |  |  |  | solubility kinetic [5, 15]: 203 µM (≈ 73.7 µg/mL); solubility kinetic [5, 13]: 203 µM (≈ 73.7 µg/mL); loss of MIC potency ([2]; relative to comparator of the series (21 vs thiophenes; 42 vs 24)): 10 fold; Mouse micro Cl [3, 14]: 8.6 mLmin/g; Microsomal Cli ([3]; supplement data table): 8.6 mL/min/g; chromatographic logD [6]: 2.2
19 | CCOC(=O)c1nc(C)oc1NC(=O)c1cc(F)c(F)c(F)c1 [Compound 26, CCOC(=O)c1nc(oc1NC(=O)c1cc(c(c(c1)F)F)F)C] |  | > 50 | > 50 | > 50 | > 50 | > 50 | > 50 |  |  |  |  |  |  | solubility kinetic [5, 15]: 241 µM (≈ 79.1 µg/mL); solubility kinetic [5, 13]: 241 µM (≈ 79.1 µg/mL); Mouse micro Cl [3, 14]: 7.1 mLmin/g; Microsomal Cli ([3]; supplement data table): 7.1 mL/min/g; chromatographic logD [6]: 2.3
